Assay results from ChEMBL document CHEMBL5252638, “Novel triphenylphosphonium amphiphilic conjugates of glycerolipid type: synthesis, cytotoxic and antibacterial activity, and targeted cancer cell delivery” (RSC Med Chem, 2023).
≈ marks a conversion by molar mass, not a printed value.

Legend:
[1] = system: PANC-1; experiment: Cytotoxicity against human PANC-1 cells assessed as number of viable cells measured after 48 hrs by MTT based colorimetric assay; assay type: functional, cell-based; conditions: PANC-1, 48 h
[2] = system: A549; experiment: Cytotoxicity against human A549 cells assessed as number of viable cells measured after 48 hrs by MTT based colorimetric assay; assay type: functional, cell-based; conditions: A549, 48 h
[3] = system: T98G; experiment: Cytotoxicity against human T98G cells assessed as number of viable cells measured after 48 hrs by MTT based colorimetric assay; assay type: functional, cell-based
[4] = system: HepG2; experiment: Cytotoxicity against human HepG2 cells assessed as number of viable cells measured after 48 hrs by MTT based colorimetric assay; assay type: functional, cell-based; conditions: HepG2, 48 h
[5] = Cytotoxicity against human WI-38 cells assessed as number of viable cells measured after 48 hrs by MTT based colorimetric assay; assay type: toxicity, cell-based
[6] = system: M-HeLa; experiment: Cytotoxicity against human HelaM cells assessed as number of viable cells measured after 48 hrs by MTT based colorimetric assay; assay type: functional, cell-based
[7] = system: HuTu80; experiment: Cytotoxicity against human HuTu80 cells assessed as number of viable cells measured after 48 hrs by MTT based colorimetric assay; assay type: functional, cell-based; conditions: HuTu80, 48 h
[8] = system: DU-145; experiment: Cytotoxicity against human DU-145 cells assessed as number of viable cells measured after 48 hrs by MTT based colorimetric assay; assay type: functional, cell-based; conditions: DU-145, 48 h
[9] = system: MCF7; experiment: Cytotoxicity against human MCF7 cells assessed as number of viable cells measured after 48 hrs by MTT based colorimetric assay; assay type: functional, cell-based; conditions: MCF7, 48 h
[10] = Cytotoxicity against human Chang liver cells assessed as number of viable cells measured after 48 hrs by MTT based colorimetric assay; assay type: toxicity, cell-based
[11] = system: SK-OV-3; experiment: Cytotoxicity against human SK-OV-3 cells assessed as number of viable cells measured after 48 hrs by MTT based colorimetric assay; assay type: functional, cell-based; conditions: SK-OV-3, 48 h
[12] = system: Pseudomonas aeruginosa; experiment: Antimicrobial activity against Pseudomonas aeruginosa ATCC 9027 by serial microdilution method; assay type: functional
[13] = system: Pseudomonas aeruginosa; experiment: Bactericidal against Pseudomonas aeruginosa ATCC 9027 by serial microdilution method; assay type: functional
[14] = system: Bacillus cereus; experiment: Antimicrobial activity against Bacillus cereus ATCC 10702 NCTC 8035 by serial microdilution method; assay type: functional
[15] = system: Escherichia coli; experiment: Bactericidal activity against Escherichia coli ATCC 25922 by serial microdilution method; assay type: functional
[16] = system: Enterococcus faecalis; experiment: Antimicrobial activity against Enterococcus faecalis ATCC 29212 by serial microdilution method; assay type: functional
[17] = system: Escherichia coli; experiment: Antimicrobial activity against Escherichia coli ATCC 25922 by serial microdilution method; assay type: functional
[18] = system: Staphylococcus aureus; experiment: Antimicrobial activity against Staphylococcus aureus ATCC 6538 P FDA 209P by serial microdilution method; assay type: functional
[19] = system: Staphylococcus aureus; experiment: Bactericidal against Staphylococcus aureus ATCC 6538 P FDA 209P by serial microdilution method; assay type: functional
[20] = system: Bacillus cereus; experiment: Bactericidal activity against Bacillus cereus ATCC 10702 NCTC 8035 by serial microdilution method; assay type: functional
[21] = system: Enterococcus faecalis; experiment: Bactericidal activity against Enterococcus faecalis ATCC 29212 by serial microdilution method; assay type: functional

COc1cccc2c1C(=O)c1c(O)c3c(c(O)c1C2=O)C[C@@](O)(C(=O)CO)C[C@@H]3O[C@H]1C[C@H](N)[C@H](O)[C@H](C)O1 [DOXORUBICIN]
IC50 [1]: 2200 nM | IC50 [2]: 700 nM | IC50 [3]: 1000 nM | IC50 [4]: 200 nM | IC50 at 48 h [5]: 400 nM | IC50 [6]: 2100 nM | IC50 [7]: 200 nM | IC50 [8]: 300 nM | IC50 [9]: 400 nM | IC50 at 48 h [10]: 500 nM | IC50 [11]: 6700 nM

CCn1cc(C(=O)O)c(=O)c2cc(F)c(N3CCNCC3)cc21 [NORFLOXACIN]
MIC [12]: 12.1 µM (≈ 3.86 µg/mL) | MBC [13]: 49 µM (≈ 15.6 µg/mL) | MIC [14]: 24.4 µM (≈ 7.79 µg/mL) | MBC [15]: 24.4 µM (≈ 7.79 µg/mL) | MIC [16]: 24.4 µM (≈ 7.79 µg/mL) | MIC [17]: 4.7 µM (≈ 1.5 µg/mL) | MIC [18]: 7.5 µM (≈ 2.4 µg/mL) | MBC [19]: 7.5 µM (≈ 2.4 µg/mL) | MBC [20]: 24.4 µM (≈ 7.79 µg/mL) | MBC [21]: 24.4 µM (≈ 7.79 µg/mL)
